Measured values as given in patent US20250120981A1, “MRTX1133 PHARMACEUTICAL COMPOSITIONS” (MIRATI THERAPEUTICS, INC., priority 2023, published 2025).
Like-named read-outs stand apart in the source and are kept apart here.

Assay: Pharmacokinetics in humans, MRTX1133 formulation, oral, single and multiple doses
Format: in vivo
Settings: for increase in the mean exposure: dose increased from 200 mg BID to 400 mg BID; for concentration at 0 h / concentration at 0.5 h / concentration at 1 h / concentration at 1.5 h / concentration at 2 h / concentration at 4 h / concentration at 6 h / concentration at 8 h / concentration at 12 h / concentration at 24 h / AUC(0-t) / Cmax / Tmax / AUC0-inf / concentration at 3 h / concentration at 5 h / concentration at 48 h / concentration at 72 h / concentration at 96 h / half-life: human, plasma, po; for AUC0-inf: read-out: AUC0-inf, Geo Mean
Experimental: The pharmacokinetics [PK] of the MRTX1133 formulation after oral administration has been evaluated in 25 subjects across 3 escalating dose frequencies under fasting conditions (200 mg twice daily [BID], 400 mg BID, and 800 mg BID), as well as evaluation of 400 mg BID when administered with a low-fat meal (i.e., under fed conditions). The mean (+standard deviation) single-dose and multiple-dose pharmacokinetic profiles of the evaluated doses are presented in FIG. 9 and FIG. 10, respectively. Individual single- and multiple-dose PK profiles can be found in FIG. 11. For all figures, the X-axis represents nominal time of sample collection (hours [h]) and the Y-axis represents plasma concentration (ng/mL). Table 10 lists PK data following the oral administration of a single dose and multiple doses of MRTX1133 formulation by dose level and subject.

[1] = 200 mg, multiple oral doses of 200 mg BID, fasted, mean of subjects, read-out: Plasma concentration, Mean
[2] = 200 mg, single oral dose of 200 mg, fasted, mean of subjects, read-out: Plasma concentration, Mean
[3] = 400 mg, multiple oral doses of 400 mg BID with a low-fat meal, mean of subjects, read-out: Plasma concentration, Mean
[4] = 400 mg, multiple oral doses of 400 mg BID with a low-fat meal, mean of subjects
[5] = 400 mg, multiple oral doses of 400 mg BID, fasted, mean of subjects, read-out: Plasma concentration, Mean
[6] = 400 mg, single oral dose of 400 mg with a low-fat meal, mean of subjects, read-out: Plasma concentration, Mean
[7] = 400 mg, single oral dose of 400 mg with a low-fat meal, mean of subjects
[8] = 400 mg, single oral dose of 400 mg with a low-fat meal, individual subjects, read-out: Plasma concentration
[9] = 400 mg, single oral dose of 400 mg, fasted, mean of subjects, read-out: Plasma concentration, Mean
[10] = 400 mg, single oral dose of 400 mg, fasted, individual subjects, read-out: Plasma concentration
[11] = 800 mg, multiple oral doses of 800 mg BID, fasted, Mean of subjects, read-out: Plasma concentration

For `C#Cc1c(F)ccc2cc(O)cc(-c3ncc4c(N5C[C@H]6CC[C@@H](C5)N6)nc(OC[C@@]56CCCN5C[C@H](F)C6)nc4c3F)c12` [MRTX1133, 4-(4-((1R,5S)-3,8-diazabicyclo[3.2.1]octan-3-yl)-8-fluoro-2-(((2R,7aS)-2-fluorohexahydro-1Hpyrrolizin-7a-yl)methoxy)pyrido[4,3-d]pyrimidin-7-yl)-5-ethynyl-6-fluoronaphthalen-2-ol], the “increase in the mean exposure” value (fasted, multiple doses) was ~4.4 fold, the “increase in the mean exposure” value (fasted, single dose) was “approximately 1.8 fold” and the “change of mean single- and multiple-dose exposure” value (dose increased from 400 mg BID to 800 mg BID, fasted) was “did not change in a clinically meaningful manner”. It also gave a concentration at 0 h [1] of 5.33 ng/mL, a concentration at 0.5 h [1] of 28.1 ng/mL and a concentration at 1 h [1] of 31.1 ng/mL. The concentration at 1.5 h [1] was 33.1 ng/mL, the concentration at 2 h [1] was 20.1 ng/mL and the concentration at 4 h [1] was 6.62 ng/mL. The concentration at 6 h [1] was 3.85 ng/mL, the concentration at 8 h [1] was 2.79 ng/mL and the concentration at 12 h [1] was 2.46 ng/mL. The concentration at 24 h (200 mg, multiple oral doses of 200 mg BID, fasted, individual subjects, sample taken after PM dose, read-out: Plasma concentration) was 0.73 ng/mL, the AUC(0-t) (200 mg, multiple oral doses of 200 mg BID, fasted, geometric mean of subjects, read-out: AUC0-12, Geo Mean) was 93.1 ng·h/mL and the AUC(0-t) (200 mg, multiple oral doses of 200 mg BID, fasted, geometric mean of subjects, read-out: AUC0-last, Geo Mean) was 75.2 ng·h/mL. It also gave a Cmax (200 mg, multiple oral doses of 200 mg BID, fasted, geometric mean of subjects, read-out: Cmax, Geo Mean) of 36 ng/mL, a Tmax (200 mg, multiple oral doses of 200 mg BID, fasted, median of subjects (footnote b), read-out: Tmax, Median) of 1.5 h and a concentration at 0.5 h [2] of 11.1 ng/mL. It also gave a concentration at 1 h [2] of 44.3 ng/mL, a concentration at 1.5 h [2] of 39 ng/mL and a concentration at 2 h [2] of 39.3 ng/mL. For the same compound, the concentration at 4 h [2] was 30.4 ng/mL, the concentration at 6 h [2] was 11.9 ng/mL and the concentration at 8 h [2] was 6.58 ng/mL. It also gave a concentration at 12 h [2] of 4.44 ng/mL, a concentration at 24 h [2] of 0.521 ng/mL and an AUC(0-t) (200 mg, single oral dose of 200 mg, fasted, geometric mean of subjects, read-out: AUC0-12, Geo Mean) of 148 ng·h/mL. For the same compound, the AUC0-inf (200 mg, single oral dose of 200 mg, fasted, geometric mean of subjects) was 165 ng·h/mL, the AUC(0-t) (200 mg, single oral dose of 200 mg, fasted, geometric mean of subjects, read-out: AUC0-last, Geo Mean) was 151 ng·h/mL and the Cmax (200 mg, single oral dose of 200 mg, fasted, geometric mean of subjects, read-out: Cmax, Geo Mean) was 59.8 ng/mL. The Tmax (200 mg, single oral dose of 200 mg, fasted, median of subjects (footnote b), read-out: Tmax, Median) was 1.5 h, the concentration at 0 h [3] was 16.7 ng/mL and the concentration at 1 h [3] was 138 ng/mL. It also gave a concentration at 2 h [3] of 66.7 ng/mL, a concentration at 3 h [4] of 55.1 ng/mL and a concentration at 4 h [3] of 100 ng/mL. The concentration at 5 h [4] was 39.8 ng/mL, the concentration at 6 h [3] was 30 ng/mL and the concentration at 8 h [3] was 23 ng/mL. The concentration at 12 h [3] was 17.3 ng/mL, the AUC(0-t) (400 mg, multiple oral doses of 400 mg BID with a low-fat meal, geometric mean of subjects, read-out: AUC0-12, Geo Mean) was 310 ng·h/mL and the AUC(0-t) (400 mg, multiple oral doses of 400 mg BID with a low-fat meal, geometric mean of subjects, read-out: AUC0-last, Geo Mean) was 310 ng·h/mL. It also gave a Cmax (400 mg, multiple oral doses of 400 mg BID with a low-fat meal, geometric mean of subjects, read-out: Cmax, Geo Mean) of 102 ng/mL, a Tmax (400 mg, multiple oral doses of 400 mg BID with a low-fat meal, median of subjects (footnote b), read-out: Tmax, Median) of 1 h and a concentration at 0 h [5] of 19.4 ng/mL. For the same compound, the concentration at 0.5 h [5] was 72.7 ng/mL, the concentration at 1 h [5] was 85.9 ng/mL and the concentration at 1.5 h [5] was 64.6 ng/mL. For the same compound, the concentration at 2 h [5] was 48.5 ng/mL, the concentration at 4 h [5] was 77.3 ng/mL and the concentration at 6 h [5] was 63.4 ng/mL. The concentration at 8 h [5] was 40.3 ng/mL, the concentration at 12 h [5] was 27.8 ng/mL and the AUC(0-t) (400 mg, multiple oral doses of 400 mg BID, fasted, geometric mean of subjects, read-out: AUC0-12, Geo Mean) was 410 ng·h/mL. It also gave an AUC(0-t) (400 mg, multiple oral doses of 400 mg BID, fasted, geometric mean of subjects, read-out: AUC0-last, Geo Mean) of 410 ng·h/mL, a Cmax (400 mg, multiple oral doses of 400 mg BID, fasted, geometric mean of subjects, read-out: Cmax, Geo Mean) of 111 ng/mL and a Tmax (400 mg, multiple oral doses of 400 mg BID, fasted, median of subjects (footnote b), read-out: Tmax, Median) of 1 h. It also gave a concentration at 1 h [6] of 46.7 ng/mL, a concentration at 2 h [6] of 43.6 ng/mL and a concentration at 3 h [7] of 43.7 ng/mL. It also gave a concentration at 4 h [6] of 59.7 ng/mL, a concentration at 5 h [7] of 53.9 ng/mL and a concentration at 6 h [6] of 43.6 ng/mL. It also gave a concentration at 8 h [6] of 20.4 ng/mL, a concentration at 12 h [6] of 11.3 ng/mL and a concentration at 24 h [8] of 7.59 ng/mL. For the same compound, the concentration at 24 h [6] was 7.59 ng/mL, the concentration at 48 h [8] was 3.13 ng/mL and the concentration at 48 h [6] was 3.13 ng/mL. For the same compound, the concentration at 72 h [8] was 2.13 ng/mL, the concentration at 72 h [6] was 2.13 ng/mL and the concentration at 96 h [8] was 1.12 ng/mL. For the same compound, the concentration at 96 h [6] was 1.12 ng/mL, the AUC(0-t) (400 mg, single oral dose of 400 mg with a low-fat meal, geometric mean of subjects, read-out: AUC0-12, Geo Mean) was 256 ng·h/mL and the AUC0-inf (400 mg, single oral dose of 400 mg with a low-fat meal, geometric mean of subjects) was 300 ng·h/mL. It also gave an AUC(0-t) (400 mg, single oral dose of 400 mg with a low-fat meal, geometric mean of subjects, read-out: AUC0-last, Geo Mean) of 277 ng·h/mL, a Cmax (400 mg, single oral dose of 400 mg with a low-fat meal, geometric mean of subjects, read-out: Cmax, Geo Mean) of 66.6 ng/mL and a half-life (400 mg, single oral dose of 400 mg with a low-fat meal, geometric mean of subjects, read-out: T1/2, Geo Mean (converted)) of 27.2 h. For the same compound, the half-life (400 mg, single oral dose of 400 mg with a low-fat meal, individual subjects, read-out: T1/2 (converted)) was 27.2 h, the Tmax (400 mg, single oral dose of 400 mg with a low-fat meal, median of subjects (footnote b), read-out: Tmax, Median) was 4 h and the concentration at 0.5 h [9] was 42.7 ng/mL. It also gave a concentration at 1 h [9] of 52.2 ng/mL, a concentration at 1.5 h [9] of 48.9 ng/mL and a concentration at 2 h [9] of 83.3 ng/mL. It also gave a concentration at 4 h [9] of 64.4 ng/mL, a concentration at 6 h [9] of 34.5 ng/mL and a concentration at 8 h [9] of 23 ng/mL. It also gave a concentration at 12 h [9] of 11.9 ng/mL, a concentration at 24 h [10] of 3.75 ng/mL and a concentration at 24 h [9] of 3.75 ng/mL. The concentration at 48 h [10] was 1.46 ng/mL, the concentration at 48 h [9] was 1.46 ng/mL and the concentration at 72 h [10] was 0.872 ng/mL. For the same compound, the concentration at 72 h [9] was 0.872 ng/mL, the concentration at 96 h [10] was 0.538 ng/mL and the concentration at 96 h [9] was 0.538 ng/mL. For the same compound, the AUC(0-t) (400 mg, single oral dose of 400 mg, fasted, geometric mean of subjects, read-out: AUC0-12, Geo Mean) was 263 ng·h/mL, the AUC0-inf (400 mg, single oral dose of 400 mg, fasted, geometric mean of subjects) was 304 ng·h/mL and the AUC(0-t) (400 mg, single oral dose of 400 mg, fasted, geometric mean of subjects, read-out: AUC0-last, Geo Mean) was 278 ng·h/mL. It also gave a Cmax (400 mg, single oral dose of 400 mg, fasted, geometric mean of subjects, read-out: Cmax, Geo Mean) of 86.2 ng/mL, a half-life (400 mg, single oral dose of 400 mg, fasted, geometric mean of subjects, read-out: T1/2, Geo Mean (converted)) of 33.3 h and a half-life (400 mg, single oral dose of 400 mg, fasted, individual subjects, read-out: T1/2 (converted)) of 33.3 h. The Tmax (400 mg, single oral dose of 400 mg, fasted, median of subjects (footnote b), read-out: Tmax, Median) was 2 h, the concentration at 0 h [11] was 20.6 ng/mL and the concentration at 0.5 h [11] was 97.2 ng/mL. For the same compound, the concentration at 1 h [11] was 137 ng/mL, the concentration at 1.5 h [11] was 107 ng/mL and the concentration at 2 h [11] was 122 ng/mL. For the same compound, the concentration at 4 h [11] was 138 ng/mL, the concentration at 6 h [11] was 107 ng/mL and the concentration at 8 h [11] was 56.2 ng/mL. For the same compound, the concentration at 12 h [11] was 14.7 ng/mL, the AUC(0-t) (800 mg, multiple oral doses of 800 mg BID, fasted, Geo Mean of subjects, read-out: AUC0-12) was 347 ng·h/mL and the AUC(0-t) (800 mg, multiple oral doses of 800 mg BID, fasted, Geo Mean of subjects, read-out: AUC0-last) was 477 ng·h/mL. It also gave a Cmax (800 mg, multiple oral doses of 800 mg BID, fasted, Geo Mean of subjects, read-out: Cmax) of 99.5 ng/mL and a Tmax (800 mg, multiple oral doses of 800 mg BID, fasted, Median of subjects, read-out: Tmax) of 2 h.
